# Reference: patent EP4711372A1, “CRYSTAL FORM OF HETEROCYCLIC COMPOUND, SALT THEREOF, CRYSTAL FORM OF SALT THEREOF, AND USE” (Hubei Bio-Pharmaceutical Industrial Technological Institute …, priority 2023, dated 2024)
# Like-named read-outs stand apart in the source and are kept apart here.
# Experiments:
# [1] = Solid-state stability evaluation test (XRPD and HPLC); assay type: physicochemical
# Method: (§1) The purity test, dynamic solubility test, and stability test in the assay were performed using an ultra-performance liquid chromatograph (UPLC).
# Their physical and chemical stability were evaluated by XRPD and HPLC.
# [2] = Hygroscopicity test (DVS); assay type: physicochemical
# Method: Dynamic vapor sorption (DVS) curves were collected on DVS Intrinsic Plus from SMS (Surface Measurement Systems). The relative humidity at 25°C was corrected using the deliquescence points of LiCl, Mg(NO3)2, and KCl.
# [3] = Dynamic solubility test of crystal forms in H2O, SGF, FaSSIF and FeSSIF; assay type: physicochemical; details: 37°C; for S: concentration of the compound represented by formula I-3B / solubility thermodynamic at 24 h: loading 10 mg/mL; for solubility thermodynamic at 24 h: read-out: S: concentration of the compound represented by formula I-3B; for FC: crystal form conversion: XRPD; for pH: filtrate
# Method: as §1
# After sampling at each time point, the samples were centrifuged (12,000 rpm, 2 minutes) and filtered (0.45 µm PTFE membrane), and the HPLC concentration and pH value of the filtrate were measured. The solid samples after centrifugation were tested for XRPD.
# [4] = tested on: mouse IPF prevention model; assay: Efficacy test on mouse IPF prevention model (Bleomycin-induced); assay type: in vivo, mice; details: mean; Nintedanib 60 mg/kg qd, oral gavage, 21 consecutive days
# Method: Male mice were adaptively fed for 1 to 2 weeks and after reaching the standard weight (25 g), the IPF model (idiopathic pulmonary fibrosis model) was induced with a certain dose of Bleomycin. On the day of modeling, the animals were randomly divided into a model group and an administration group according to their weight, in which the administration groups were administered Nintedanib (60 mg/kg, once a day (qd)) and compound I-3B obtained in Example 1 (2.5 mg/kg, twice a day (bid)) by oral gavage for 21 consecutive days while the vehicle control group was administered blank vehicle. During the administration period, the animals were weighed every 3 days. At the end of the last day of administration, the animals were euthanized. The lungs were removed from the thyroid cartilage (without perfusion), slowly perfused with 10% formalin until both lungs were filled, and fixed in 10% formalin 5 to 10 times the volume of the tissues after the trachea was ligated. The left lung tissues were embedded in paraffin wax, sectioned, and stained with HE and Masson Trichrome. The sections were subjected to panoramic scanning using a Hamamatsu NanoZoomer Digital Pathology (S210) slide scanner for pathological analysis.
# [5] = tested on: mouse IPF treatment model; assay: Efficacy test on mouse IPF treatment model (Bleomycin-induced); assay type: in vivo, mice; details: mean; Nintedanib 60 mg/kg qd, oral gavage, 14 consecutive days from day 7
# Method: Male mice were adaptively fed for 1 to 2 weeks and after reaching the standard weight (25 g), the IPF model (idiopathic pulmonary fibrosis model) was induced with a certain dose of Bleomycin. On the day of modeling, the animals were randomly divided into a model group and an administration group according to their weight, in which the administration groups were administered Nintedanib (60 mg/kg, qd), low-dose compound I-3B obtained in Example 1 (1 mg/kg, bid), and high-dose compound I-3B obtained in Example 1 (2.5 mg/kg, bid) by oral gavage for 14 consecutive days starting from day 7 while the vehicle control group was administered blank vehicle. During the administration period, the animals were weighed twice a week. At the end of the last day of administration, the animals were euthanized. The lungs were removed from the thyroid cartilage (without perfusion), slowly perfused with 10% formalin until both lungs were filled, and fixed in 10% formalin 5 to 10 times the volume of the tissues after the trachea was ligated. The left lung tissues were embedded in paraffin wax, sectioned, and stained with HE and Masson Trichrome. The sections were subjected to panoramic scanning using a Hamamatsu NanoZoomer Digital Pathology (S210) slide scanner for pathological analysis.
# 15-PGDH = target: T1, 15-PGDH (Homo sapiens, UniProt P15428); assay: 15-PGDH enzyme inhibition assay (fluorescence, NAD+/PGE2); assay type: biochemical; details: 15-PGDH inhibition
# T1 construct: purchased R&D Systems 5660-DH-010
# T1 sequence (P15428 1-266): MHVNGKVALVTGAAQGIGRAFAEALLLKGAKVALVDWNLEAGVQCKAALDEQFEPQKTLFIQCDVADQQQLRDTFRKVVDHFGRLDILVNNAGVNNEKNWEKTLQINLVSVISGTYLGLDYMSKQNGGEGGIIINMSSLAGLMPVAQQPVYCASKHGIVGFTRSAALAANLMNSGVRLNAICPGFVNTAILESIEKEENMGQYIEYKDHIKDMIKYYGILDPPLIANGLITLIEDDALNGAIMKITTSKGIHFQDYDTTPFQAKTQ
# Method: 15-PGDH (R&D Systems, Cat. No. 5660-DH-010) was prepared to twice the final concentration, i.e., 30 nM, using Assay Buffer (50 mM Tris-HCl, pH 7.5, 0.01% Tween 20 by volume). 15-PGDH was then added to a 384-well white plate (Cisbio Bioassays, Cat. No. 66PL384025) at 8 µL/well. Negative control wells (with Assay Buffer only and without enzyme) were set. The compound was then prepared to 4 times the final concentration using Assay Buffer, i.e., diluted 3-fold to 10 concentrations starting from 4000 nM. The compound was added to the above white plate at 4 µL/well, mixed well, centrifuged at 1000 rpm for 1 minute, and incubated at 25°C for 10 minutes. Both positive control wells (with 15-PGDH only) and negative control wells (without 15-PGDH) were set. A mixture of NAD^+ (Select, Cat. No. S2518) and PGE2 (R&D Systems, Cat. No.:2296110) was then prepared using Assay Buffer. NAD^+ and PGE2 were prepared to four times their final concentrations, i.e., 2 mM and 0.12 mM, respectively, using Assay Buffer. The mixture was then added to the above white plate at 4 µL/well, mixed well, centrifuged at 1000 rpm for 1 minute, and incubated at 25°C for 30 minutes for the reaction. The fluorescence was measured at an excitation wavelength of 340 nm and an emission wavelength of 485 nm using a TECAN SPARK 20M microplate reader. The IC50 value was calculated using four-parameter fitting with GraphPad Prism 8.0.
# [6] = Pharmacokinetics in mice (oral gavage); assay type: in vivo; details: mouse, plasma, male CD-1 mice, 10 mg/kg
# Method: The pharmacokinetic properties of the compounds obtained in Example 1 in mice were determined with reference to the following experimental methods.
# Three male CD-1 mice were administered by oral gavage at a dose of 10 mg/kg, and the vehicle was 5% DMSO + 10% Solutol + 85% Saline. The mice were fasted overnight, and the time points of blood collection were before administration and at 15 minutes, 30 minutes, 1 hour, 2 hours, 4 hours, 8 hours, and 24 hours after administration. Blood samples were centrifuged at 6,800 g for 6 minutes at 2 to 8°C, and plasma was collected and stored at - 80°C. 10 µL of plasma at each time point was taken and added with 200 µL of methanol containing 100 ng/mL internal standard. The mixture was vortexed, mixed well, and centrifuged at 18,000 g for 7 minutes at 2 to 8°C. 200 µL of the mixture was transferred to a 96-well injection plate for LC-MS/MS quantitative analysis. The main pharmacokinetic parameters were analyzed using WinNonlin 7.0 software with non-compartmental model.
compound,measurement,setting,value
Cn1nc2cc(N3C[C@H]4C[C@H]4c4cc(C(=O)N5CCC(F)(F)CC5)cnc43)ccn2c1=O [listing 1 of 2 here],HPLC purity,"[1]; peak at RRT 0.52 (impurity), 25°C/60% RH/open/1 week",0.22 area%
same,HPLC purity,"[1]; peak at RRT 0.52 (impurity), 40°C/75% RH/open/1 week",0.22 area%
same,HPLC purity,"[1]; peak at RRT 0.52 (impurity), 60°C/closed/1 day",0.22 area%
same,HPLC purity,"[1]; peak at RRT 0.52 (impurity), Onset",0.22 area%
same,HPLC purity,"[1]; peak at RRT 0.97 (impurity), 25°C/60% RH/open/1 week",0.10 area%
same,HPLC purity,"[1]; peak at RRT 0.97 (impurity), 40°C/75% RH/open/1 week",0.09 area%
same,HPLC purity,"[1]; peak at RRT 0.97 (impurity), 60°C/closed/1 day",0.10 area%
same,HPLC purity,"[1]; peak at RRT 0.97 (impurity), Onset",0.10 area%
same,moisture absorption weight gain,[2]; 25°C/80% RH,1.112%
same,change in crystal form after DVS testing (XRPD),[2]; before and after DVS testing,no change in crystal form
Cn1nc2cc(N3C[C@H]4C[C@H]4c4cc(C(=O)N5CCC(F)(F)CC5)cnc43)ccn2c1=O [listing 2 of 2 here],S: concentration of the compound represented by formula I-3B,"[3]; FaSSIF, 1 hour",2.6 mg/mL
same,S: concentration of the compound represented by formula I-3B,"[3]; FaSSIF, 4 hours",2.5 mg/mL
same,solubility thermodynamic at 24 h,"[3]; FaSSIF, 24 hours",2700 µg/mL
same,S: concentration of the compound represented by formula I-3B,"[3]; FeSSIF, 1 hour",3.0 mg/mL
same,S: concentration of the compound represented by formula I-3B,"[3]; FeSSIF, 4 hours",3.4 mg/mL
same,solubility thermodynamic at 24 h,"[3]; FeSSIF, 24 hours",3900 µg/mL
same,S: concentration of the compound represented by formula I-3B,"[3]; H2O, 1 hour",3.3 mg/mL
same,S: concentration of the compound represented by formula I-3B,"[3]; H2O, 4 hours",2.6 mg/mL
same,S: concentration of the compound represented by formula I-3B,"[3]; SGF, 1 hour",5.3 mg/mL
same,S: concentration of the compound represented by formula I-3B,"[3]; SGF, 4 hours",5.1 mg/mL
same,FC: crystal form conversion,"[3]; FaSSIF, 1 hour",No
same,FC: crystal form conversion,"[3]; FaSSIF, 4 hours",No
same,FC: crystal form conversion,"[3]; FaSSIF, 24 hours",No
same,FC: crystal form conversion,"[3]; FeSSIF, 1 hour",No
same,FC: crystal form conversion,"[3]; FeSSIF, 4 hours",No
same,FC: crystal form conversion,"[3]; FeSSIF, 24 hours",No
same,FC: crystal form conversion,"[3]; H2O, 1 hour",No
same,FC: crystal form conversion,"[3]; H2O, 4 hours",No
same,FC: crystal form conversion,"[3]; H2O, 24 hours",No
same,FC: crystal form conversion,"[3]; SGF, 1 hour",No
same,FC: crystal form conversion,"[3]; SGF, 4 hours",No
same,FC: crystal form conversion,"[3]; SGF, 24 hours",No
same,pH,"[3]; FaSSIF, 1 hour",6.46
same,pH,"[3]; FaSSIF, 4 hours",6.60
same,pH,"[3]; FaSSIF, 24 hours",6.70
same,pH,"[3]; FeSSIF, 1 hour",4.91
same,pH,"[3]; FeSSIF, 4 hours",4.96
same,pH,"[3]; FeSSIF, 24 hours",4.93
same,pH,"[3]; H2O, 1 hour",8.57
same,pH,"[3]; H2O, 4 hours",8.59
same,pH,"[3]; H2O, 24 hours",8.95
same,pH,"[3]; SGF, 1 hour",1.82
same,pH,"[3]; SGF, 4 hours",1.94
same,pH,"[3]; SGF, 24 hours",2.11
same,solubility thermodynamic at 24 h,"[3]; simulated gastric fluid, SGF, 24 hours",4700 µg/mL
same,solubility thermodynamic at 24 h,"[3]; water, H2O, 24 hours",900 µg/mL
"COC(=O)c1ccc2c(c1)NC(=O)/C2=C(\Nc1ccc(N(C)C(=O)CN2CCN(C)CC2)cc1)c1ccccc1 [Nintedanib, reference compound]",Total pulmonary fibrosis score,[4],3.39
same,Total pulmonary fibrosis score,[5],2.84
"Cn1nc2cc(N3CC4CC4c4cc(C(=O)N5CCC(F)(F)CC5)cnc43)ccn2c1=O (stereo not shown) [compound I-3, 7-(6-(4,4-difluoropiperidine-1-carbonyl)-1,1a,2,7b-tetrahydro-3H-cyclopropa[c][1,8]naphthyridin-3-yl)-2-methyl-[1,2,4]triazolo[4,3-a]pyridin-3(2H)-one]",IC50,15-PGDH,4.2 nM
same,AUC(0-t),[6],35500 ng·h/mL
same,Cmax,[6],3710 ng/mL
Cn1nc2cc(N3CC4CC4c4cc(C(=O)N5CCC(F)(F)CC5)cnc43)ccn2c1=O (stereo not shown) [compound I-3A],IC50,15-PGDH,12.2 nM
